Test results as given in patent US6569846B1, “Palladium-substituted bacteriochlorophyll derivatives and use thereof” (Yeda Research and Development Co. Ltd., priority 1998, dated 2003).

Legend:
[1] = test system: M2R mouse melanoma cells; test: Phototoxicity on M2R cells (Example 11, [3H]-thymidine incorporation); assay type: cell-based
Protocol: For phototoxicity analysis cells (1×10^4 cells/well) were cultured in 96-well plates for 24 hours to an approximate density of 2×10^4 cells/well. Pigments were dissolved directly in culture medium or in ethanol 95% and further diluted in culture medium to a final concentration of 1% ethanol. The diluted pigments were added and the cells were incubated in the dark for four hours at 37° C. Prior to illumination, the cells were washed once and replaced with fresh culture medium. The plates were then illuminated from the bottom for 10 minutes at room temperature and placed in the culture incubator at 37° C. in the dark. Cell survival was determined 24 hours later. The following control systems were used: Dark control—untreated cells kept in the dark; Light control—cells not treated with sensitizer that were illuminated; Dark toxicity—cells treated with pigment but kept in the dark. Cell survival was determined by [^3H]-thymidine incorporation as described earlier (WO 97/19081). […]
(iii) Phototoxicity study: Analysis was performed with the same protocol as described above (Example 10) with the following changes: Pd-BPheid was dissolved directly in medium containing 10% serum and then added to the cells. Survival of M2R cells was determined by [^3H]-thymidine incorporation and that of human HT29 cells with the MTT assay (Merlin J L et al., 1992 Eur. J. Cancer 28A: 1452-1458).

[2] = test system: C6 glioma tumors; test: In vivo PDT of C6 glioma tumors and metastasis formation; set-up: species or system CD1 nude mice; settings: 5 mg/Kg i.v.; for tumor flattening (disappearance): 200 mw/cm^2 for 30 minutes
Protocol: (i) Materials: Pd-BPheid (prepared as in Example 1) or Pd-BPpheid-SerOMe 5 mg/kg in 20% Cremophor EL.
(ii) Light source: The light source was a Xenon fluorine LS3-PDT lamp (Bio-Spec, Russia), with 10 cm water filter and 720-850 nm light band.
(iv) Tumors: Mice were implanted with 10^6 C6 glioma cells in the foot of the hind leg. Tumors were treated when reached a length of 7-8 mm.
(vii) Protocol: Three groups (10 mice in each) were i.v. injected with 5 mg/Kg of sensitizer (Pd-BPheid or Pd-BPpheid-SerOMe) and immediately illuminated at 200 mw/cm^2, for 30 minutes, and the animals were allowed to recover in the cage. Groups 1 and 2: Animals which received PDT Pd-Bpheid and Pd-BPpheid-SerOMe, respectively. Tumor response and metastasis formation in groin were followed for 4 weeks. Group 3: Animals which were amputated at the ankle joint (paired with group 1) and metastasis formation in groin was followed for 4 weeks. The parameters of response to PDT were the percent of animals with tumor necrosis and disappearance, out of the total number of treated animals. Metatstasis was manifested by appearance of tumors in the groin or elsewhere. The endpoints considered were: follow up for 4 weeks, spontaneous death, tumors reached a diameter of 2 cm, metastasis, whichever came first.

[3] = test system: A431 human epithelial carcinoid cells
Protocol: (ii) Light source: Halogen lamp (Osram, Germany, 100 W), with 4.5 cm water filter and cut off filter>650 nm. The cells were illuminated for 10 minutes, 15 mW/cm^2, a total energy fluency of 9 J/cm^2. For illumination, the culture plates were placed on a glass table to provide the light from the bottom.
(iii) Phototoxicity study: A431 cells (5×10^4 cells) were seeded in 3 cm dishes in duplicates and cultured to 75% confluency in Dulbecco's modified Eagle's medium (DMEM)+F12 (1:1), buffered with HEPES (25 mM, pH 7.4), fetal calf serum (FCS) with penicillin (0.06 mg/ml) and streptomycin (0.1 mg/ml). […] After a 4-hour period the cells were washed with culture medium and the cells were illuminated with the light source above. Phase contrast microscopic examination was performed at different time points after illumination (0, 0.5, 4 and 24 hours post-PDT) using Zeiss Axiovert-35 light microscope (magnification X320) equipped with a Contax 35 mm SLR camera. In the second dish of every duplicate, cell viability was assessed 24 hours post-PDT using neutral red viability assay (Zhang S Z., 1990, Cell Biol Toxicol 6(2): 219-234).

[4] = test system: HDL, LDL, Albumin fractions of human serum; test: Plasma lipoprotein binding (density-gradient centrifugation); assay type: in vitro ADME; settings: 3 μM, 30 min at 37° C.
Protocol: (iv) Lipoprotein binding: Binding of Pd-BPheid to protein and lipoprotein compound of control human plasma was determined. Incubation of 250 μl plasma sample with 3 μM of the compound for 30 min at 37° C. Lipoprotein and protein components were then separated by density-gradient centrifugator. The gradients were fractionated, fractions diluted into 3 ml of 10 mM Triton X-100 detergent or of fluorescence at 750-800 nm determined upon excitation at 400 nm.

[5] = Stability of Pd-BPheid solutions by HPLC profile; assay type: physicochemical
Protocol: A reverse phase HPLC method was developed to characterize the impurity profile and quantify the Palladium-BPheid.
Solutions of Pd-BPheid stored in acetone at −20° C. were stable for at least 2-month period.

[6] = test system: M2R mouse melanoma tumors; test: In vivo PDT of M2R melanoma tumors; set-up: species or system CD1 nude mice; settings: 2.5 mg/Kg i.v., illuminated 30 min at 300 mW cm^−2; within 24 h
Protocol: (iv) Tumor implantation: Mice were implanted with 10^6 M2R cells on the back and tumors arose to the treatment size (7-8 mm) within 2-3 weeks.
(v) Light source: Osram 150 W halogen photo-optic lamp 64643 (D. K. Keller et al 1999, Int. J. Hyperthermia 15, 467-474) equipped with λ=650-900 mn spectral window, 300 mW/cm^−2. Illumination was for 30 min.
(vi) PDT protocol: The anesthetized mouse was i.v injected with the pigment and the tumor immediately illuminated. At the end of treatment the mouse was placed back in the cage. Photographs of the tumor were taken before and at the times indicated.
Preparation of sensitizer: Two mg Pd-BPheid were dissolved in 0.25 ml cremophor EL followed by 20 min sonication. 0.075 ml 1,2-propylene glycol were added and sonication was continued for another 15 min. Then 0.9 ml of […] were added followed by 5 min sonication. The sample was centrifuged for 12 min at 13,000 rpm (Eppendorf). The final calculated concentration of Pd-BPheid based on spectrum in chloroform was 0.5 mg/ml. […]
Preparation of sensitizer: Two mg Pd-BPheid were dissolved in 0.1 ml methanol, 0.1 ml 0.1M KH2PO4, pH=8.0 and 0.9 ml PBS and sonicated for 10 min. […] The sample was centrifuged for 8 min on 13,000 rpm the final calculated concentration of Pd-BPheid based on spectrum in chloroform was 0.5 mg/ml. […]

In the case of CC[C@H]1C2=NC(=Cc3c(C(C)=O)c(C)c4[n]3[Pd][n]3c(c(C)c5c3=C(C3=NC(=C4)[C@@H](C)[C@@H]3CCC(=O)O)[C@@H](C(=O)OC)C5=O)=C2)[C@@H]1C [Pd-BPheid, Pd-bacteriopheophorbide a], the “sensitivity of M2R cells relative to HT-29 cells” value [1] was “about 10 times”, the “effect of PDT on C6 glioma tumors” value [2] was “curative” and the “tumor flattening (disappearance)” value ([2]; day 11) was 100%. For the same compound, the “tumor flattening (disappearance)” value ([2]; day 28) was “about 60%”, the “frequency of metastasis after PDT” value ([2]; follow up for 4 weeks) was “up to 23%” and the LD90 concentration ([3]; 4-hour incubation, illuminated 10 minutes, 15 mW/cm^2, 9 J/cm^2) was 0.1 µM. For the same compound, the “cells that lost most of their inner volume” value ([3]; after 4 hours post PDT) was 90%, the “time of alteration in the cells membrane structure” value ([3]; post PDT) was 30 min and the “morphological phenotype post PDT” value ([3]; sensitizer at LD90 concentration, phase contrast microscopy) was “fibrous phenotype”. The “plasma lipoprotein binding, rank order of fractions” value [4] was “HDL>LDL>>>Albumin”, the “change in the HPLC profile” value ([5]; stock solution at room temperature for 18 hours) was “no change in the HPLC profile” and the “period for which solutions were stable” value ([5]; stored in acetone at −20° C.) was “at least 2 month”. For the same compound, the “tumor response to PDT” value [6] was “severe inflammatory response with necrosis of the tumor”.
